{"source": "patent US7850984B2", "about": "“Protection of the female reproductive system from natural and artificial insults” (The General Hospital Corporation, priority 2000, dated 2010)", "key": {"[1]": {"system": "germ cells of wild-type fetal ovaries (e13.5)", "assay": "Fetal ovary culture without hormonal support, germ cell survival", "type": "cell-based, mouse", "method": "To determine the basis of the extensive oocyte hyperplasia in ASMase −/− neonates, fetal ovaries are harvested from wild-type and mutant mice at embryonic day 13.5 (e13.5) for in vitro culture as a model to recapitulate the events surrounding germline death that occurs as a normal component of female gametogenesis. A time-dependent activation of programmed cell death is observed in the germline of wild-type fetal ovaries cultured without hormonal support for up to 72 hours (FIG. 2A). […] These findings indicate that there exists an ovarian-intrinsic cell death defect in the ASMase-deficient mouse, and point to enhanced survival of the developing germline during oogenesis as the mechanism underlying the enlarged oocyte pool seen in mutant females at birth.\nEquivalent levels of in vitro germ cell survival are obtained by either ASMase gene knockout (FIG. 2A) or by S1P treatment (FIG. 2B)."}, "[2]": {"system": "ovaries (oocyte-containing follicles)", "assay": "S1P protection against radiation in vivo, histomorphometric count of non-atretic oocyte-containing follicles", "parameters": "species or system mouse", "method": "The serial sections from each ovary are aligned in order on glass microscope slides, stained with hematoxylin/picric methyl blue, and analyzed for the number of healthy (non-atretic) oocyte-containing primordial, primary and small preantral follicles as described by Perez et al. Nat. Genet.\nYoung adult (postpartum day 40) wild-type female mice are anesthetized, and dorsal incisions are made to retrieve and expose the ovaries. Five μl of vehicle (PET) are injected into the bursa of one ovary of the pair while 5 μl of a stock of either 0.5 or 2 mM S1P, prepared in PET, are injected into the bursa of the contralateral ovary. Based on an estimated bursal cavity volume of 50 μl, the final concentrations of S1P in the bursal cavity for ovarian exposure following administration of the 0.5 and 2 mM stocks are approximately 50 and 200 μM, respectively. The ovaries are returned to the peritoneal cavity, the incisions are sutured, and the mice are allowed to recover for a 2 hour pretreatment period prior to a single exposure to 0.1 Gy of abdominally-directed ionizing radiation."}, "C57BL/6J female mice": {"system": "C57BL/6J female mice", "assay": "Mating trials of irradiated female mice", "type": "in vivo, mouse", "method": "Eight-week old C57BL/6J female mice (Jackson Laboratories) are anesthetized by intraperitoneal injection of Avertin (30 μl of a 1.25% stock solution per gram of body weight; Aldrich Chemical Co.), and dorsal incisions are made to retrieve and expose the ovaries. Five μl of vehicle (5% polyethylene glycol, 2.5% ethanol, and 0.8% Tween-80, or PET) or of a stock of 2 mM S1P (BIOMOL) prepared in PET are injected into the bursa surrounding each ovary (see Example 10). Based on an estimated bursal cavity volume of 50 μl, the final concentration of S1P following this procedure is 200 μM. The ovaries are returned to the peritoneal cavity, the incisions are sutured, and the mice are allowed to recover for a 2-h pre-treatment period. Mice are then given a single dose of 0.05 or 0.1 Gy of abdominally directed ionizing radiation, using a cesium^137 source (Shepherd Mar-I, Model 68) at a dose rate of 0.7 Gy min^−1.\nTo evaluate whether the acute protection of oocytes by S1P also results in long-term preservation of ovarian function and fertility, mating trials are initiated 2 months after irradiation. For these studies, 8-week old C57BL/6J female mice are given intrabursal injections of vehicle or a maximally effective dose of S1P (0.2 mM final concentration in the bursal cavity) two hours before exposure to 0.1 Gy of ionizing radiation, delivered as a single dose. […] Females, irradiated without or with S1P pre-treatment, are then mated with non-irradiated C57BL/6J males beginning 2 months post-irradiation. The F0 females are caged with adult (2-4 month old) wild type C57BL/6J males for 15 d. As a control to assure the fertility of the males, each is mated to a female of proven fertility. After delivery, pups of first time mothers are fostered while pups of subsequent litters are maintained with their natural mothers. […] The F0 female mice are bred again with a new wild type male two weeks after the pups are weaned, and the process is repeated for a total of 4 matings.\nIt is next examined whether preservation of ovarian function and fertility might result in propagation of genomic damage to the F2 progeny. To generate F2 offspring, F1 males and females are each bred at 2 months of age with adult (2-4 month old) wild type C57BL/6J females or males, respectively (see FIG. 6 for details)."}, "F0 oocytes": {"system": "F0 oocytes", "assay": "DNA damage in F0 oocytes scored at diakinesis/metaphase I", "type": "in vivo, mouse"}, "[3]": {"system": "ovaries (oocyte-containing follicles)", "conditions": "Morita et al., Nat. Med. 6 (2000); cited from earlier work"}}, "note": "Entries after “also recorded” stand apart in the source; their conditions may differ."}
{"smiles": "CCCCCCCCCCCCC/C=C/[C@@H](O)[C@@H](N)COP(=O)(O)O", "note": "[S1P, sphingosine-1-phosphate]", "values": [{"measurement": "share of starting population of germ cells preserved", "setting": "[1]; after 72 hours of hormone deprivation, versus 0 h", "result": "Over one-half of the starting population of germ cells (0 h or Time 0) is preserved"}, {"measurement": "germ cell survival / germ cell apoptosis in cultured fetal ovaries", "setting": "[1]; wild-type fetal ovaries, 72 hours in vitro without hormonal support, FB1 5-500 μM, S1P increasing concentrations", "result": "the reduced incidence of germ cell apoptosis conveyed by ASMase-deficiency is recapitulated"}, {"measurement": "preservation of the germ cell reserve", "setting": "[2]; S1P approx. 50 and 200 μM intrabursal, two hours before 0.1 Gy, ovaries two weeks later", "result": "significant and dose-dependent preservation of the germ cell reserve"}, {"measurement": "side effects on the ovaries", "setting": "[2]; general statement", "result": "safe and without side effects on the ovaries"}, {"measurement": "protection of follicle populations after irradiation", "setting": "[2]; highest dose of S1P (200 μM in bursal cavity), two hours before 0.1 Gy, two weeks post-irradiation", "result": "complete protection of the quiescent (primordial) and growing (primary, preantral) follicle populations; also recorded: retain a completely normal distribution of oocyte-containing follicles at all stages of development; also recorded: indistinguishable from non-irradiated controls; also recorded: Complete protection of the female germline from radiation-induced death"}, {"measurement": "number of follicles at any stage of development versus vehicle-treated ovaries", "setting": "[2]; in the absence of irradiation, intrabursal S1P", "result": "does not significantly differ"}, {"measurement": "irradiated females remaining fertile after one year", "setting": "C57BL/6J female mice; 200 μM S1P before 0.1 Gy, fourth mating trial, P<0.001 vs. vehicle-treated irradiated females", "result": 75, "unit": "%"}, {"measurement": "irradiated females delivering litters, first mating trial", "setting": "C57BL/6J female mice; 200 μM S1P before 0.1 Gy, mating 2 months post-irradiation, n=8", "result": "all"}, {"measurement": "litter size", "setting": "C57BL/6J female mice; S1P-treated irradiated group (0.1 Gy), average", "result": "6.1±0.4", "unit": "pups per mating"}, {"measurement": "frequency of rejection of pups by irradiated mothers", "setting": "C57BL/6J female mice; mothers treated or not with S1P", "result": "no increase in the frequency of rejection of pups"}, {"measurement": "phenotypic or behavioral abnormalities in F2 offspring", "setting": "C57BL/6J female mice; second generation", "result": "no gross phenotypic or behavioral abnormalities"}, {"measurement": "phenotypic or behavioral abnormalities in F1 offspring", "setting": "C57BL/6J female mice; up to 18 months of age", "result": "No phenotypic or behavioral abnormalities"}, {"measurement": "Oocytes with Breaks/Crosstalk (% of total)", "setting": "F0 oocytes; 0.05 Gy + S1P", "result": 16.4, "unit": "%"}, {"measurement": "Average Oocytes/o (mean ± SEM)", "setting": "F0 oocytes; 0.05 Gy + S1P (200 μM intrabursal), 8 weeks after irradiation, n=8", "result": "30.8 ± 3.9"}, {"measurement": "Oocytes with Breaks/Crosstalk, number", "setting": "F0 oocytes; 0.05 Gy + S1P, of 110 total scorable oocytes", "result": 18}, {"measurement": "Oocytes with Breaks/Crosstalk (% of total)", "setting": "F0 oocytes; 0.1 Gy + S1P", "result": 27.6, "unit": "%"}, {"measurement": "Oocytes with Breaks/Crosstalk, number", "setting": "F0 oocytes; 0.1 Gy + S1P, of 86 total scorable oocytes", "result": 24}, {"measurement": "percentage of oocyte population manifesting DNA damage versus vehicle-treated irradiated mice", "setting": "F0 oocytes; S1P-treated irradiated females", "result": "no increase in the percentage of the oocyte population manifesting DNA damage"}, {"measurement": "protection of oocyte population from apoptotic death following radiotherapy", "setting": "[3]", "result": "essentially protects the entire oocyte population from apoptotic death"}]}
